Experimental findings from US7541380B2, “Use of rapamycin and structural analogues thereof” (Universita' Degli Studi do Ferrara, priority 2002, dated 2009) are described below.

For data set [1], the system named is mRNA for gamma-globin. In words: Quantitative RT-PCR of mRNA for gamma-globin in human erythroid precursors isolated from peripheral blood (two-stage culture of Fibach et al.). Format: cell-based. The conditions noted are these: for mRNA for gamma-globin (increase compared with untreated control erythroid precursors): rapamycin 3 μM, hydroxyurea 120 μM, control = 1. The source says: In order to check whether rapamycin was capable, in addition to inducing K562 cell differentiation, of stimulating the production of mRNA for gamma-globin in human erythroid precursors isolated from peripheral blood, the technique published by Fibach et al. (19, 20) was used. This technique provides for two stages: in the first stage, the cells isolated from peripheral blood of a subject who is healthy or suffering from a haemopoietic pathology, such as sickle cell anaemia or beta-thalassaemia, are sown in a culture medium to which 10% of conditioned medium derived from the vesicle carcinoma cell line 5637 has been added. The second stage consists in cultivating the isolated cells in a suitable culture medium, supplemented by the erythropoietin hormone, 30% foetal bovine serum, 2-mercaptoethanol, albumin, glutamine and desamethasone in order to permit the proliferation and maturing of stem cells of the erythroid type. In this stage the cells can be treated with potential HbF inducers.

In data set [2] the test system is mRNA for gamma-globin. In words: Quantitative RT-PCR of mRNA for gamma-globin in K562 cells. Format: cell-based, human. The conditions noted are these: 20 nM, 6 days of induction, control = 1.
Method: (§1) The level of differentiation was evaluated by analysing the positive reaction of the cells to benzidine (3). […] The production of haemoglobin was evaluated by electrophoresis on cellulose acetate and by staining the gel with a solution based on benzidine/H2O2 (3). […] The expression of genes coding for gamma-globins was evaluated by quantitative RT-PCR (reverse transcriptase PCR) (3).
In data set [3] the test system is human cell line K562. The data set can be described thus: Haemoglobin production in K562 cells by electrophoresis on cellulose acetate and benzidine/H2O2 staining. Format: cell-based. The conditions noted are these: K562 cells treated with rapamycin.
Method: as §1
In a further data set the test system is human cell cultures. The data set can be described thus: Cytotoxic effect in human cell cultures. Format: cell-based. Conditions: compared with hydroxyurea. On the procedure: The activity of rapamycin as an inducer of erythroid cell differentiation and the production of mRNA for gamma-globin was evaluated in human cell cultures. The results of this study are illustrated in the Tables given in the section relating to the Examples.

Data set [4] relates to human cell line K562. The data set can be described thus: Erythroid differentiation of K562 cells (benzidine-positive cells). Conditions: 20 nM, mean ± SD of 6 experiments, control 4.1%.
Method: as §1

Molecules are shown by their SMILES.

Turning to `NC(=O)NO` [Hydroxyurea, hydroxyurea], in the data set with mRNA for gamma-globin [1], the “mRNA for gamma-globin (increase compared with untreated control erythroid precursors)” value was determined as 2.25.
Take `CO[C@H]1C[C@@H]2CC[C@@H](C)[C@@](O)(O2)C(=O)C(=O)N2CCCC[C@H]2C(=O)O[C@H]([C@H](C)C[C@@H]2CC[C@@H](O)[C@H](OC)C2)CC(=O)[C@H](C)/C=C(\C)[C@@H](O)[C@@H](OC)C(=O)[C@H](C)C[C@H](C)/C=C/C=C/C=C/1C` [Rapamycin, rapamycin]: in the data set with mRNA for gamma-globin [1], the “Increase in the production of mRNA for gamma-globin compared with the same untreated cells” value came to 3.75 times and the “mRNA for gamma-globin (increase compared with untreated control erythroid precursors)” value amounted to 3.73. Moreover, in the data set with mRNA for gamma-globin [2], the “mRNA for gamma-globin (increase compared with untreated control K562 cells)” value is 2.4. Further, the Chief haemoglobin produced result in the data set on human cell line K562 [3] is reported as “Hb Portland (alpha2gamma2)”. Also, in the data set with human cell cultures, the Cytotoxic effect entry is “much lower than that of hydroxyurea”. Moreover, in the data set on human cell line K562 [4], the “Erythroid differentiation = percentage of K562 cells that react positively to benzidine” value is given as 45.5 ± 5.8%. Further, in the data set with human cell line K562 [4] (listed as rapamycin), the “Erythroid differentiation = percentage of K562 cells that react positively to benzidine” value is reported as 40-45%.
